From patent US4254147A, “Pharmaceutical composition for total parenteral nutrition” (priority 1978, dated 1981)

Key:
[1] = LD50 acute toxicity, rat (Litchfield and Wilcoxon method); details: in vivo
Description: (§1) As known, carnitine contains an asimmetric atom and consequently exists in two stereoisomers. […] Thus, the LD50 in rats and mice assessed for various routes of administration according to the Litchfield and Wilcoxon method is as shown in the following Table A. (Litchfield, J. T., and Wilcoxon, F., J. Pharm. Exptl. Therap. 96, 99. 1949).

[2] = LD50 acute toxicity, mouse (Litchfield and Wilcoxon method); details: in vivo
Description: as §1

[3] = Activity and toxicity comparison of carnitine isomers (in words); details: isomers of carnitine compared
Description: as §1

[4] = Effective utilization of exogenous glycerides on daily carnitine dosing; assay type: in vivo, patient
Protocol: The dose of carnitine which is administered will be determined by the attending physician having regard to the age, weight and condition of the patient, using sound professional judgement. Although effective utilization of exogenous glycerides can be noticed at doses as low as from 30 to 50 mg/kg of body weight daily, a dose of from about 150 to about 200 mg/kg of body weight daily is preferred.

Structure (SMILES): C[N+](C)(C)CC(O)CC(=O)[O-] (racemic) [D,L-carnitine]
- LD50 ([1]; iv): 995 mg/kg
- LD50 ([2]; iv): 610 mg/kg
- LD50 ([2]; sc): 6000 mg/kg

Structure (SMILES): C[N+](C)(C)C[C@@H](O)CC(=O)[O-] [D-carnitine]
- LD50 ([1]; sc): 10000 mg/kg
- LD50 ([2]; sc): 5400 mg/kg
- toxicity of the isomer [3]: slightly more toxic

Structure (SMILES): C[N+](C)(C)C[C@H](O)CC(=O)[O-] [L-carnitine]
- LD50 ([2]; sc): 7000 mg/kg
- activity of the isomer [3]: more active

Structure (SMILES): C[N+](C)(C)CC(O)CC(=O)[O-] (stereo not shown) [carnitine]
- minimal effective dose ([4]; Homo sapiens, daily carnitine dose, read-out: dose at which effective utilization of exogenous glycerides can be noticed): 30 to 50 mg/kg/day
- toxicity of carnitine ([4]; in vivo): extremely low toxicity
